Reference: patent publication US9605004B2, “Chemical compounds” (SYNGENTA LIMITED, priority 2013, dated 2017)

Experiments:
[1] = test system: a variety of test species; assay: Post-emergence herbicidal activity (Example 8b, Table 3); format: in vivo; conditions: application post-emergence, rate 1000 g/ha, evaluated after 13 days, scale 0-5; for Herbicidal damage score, ABUTH: Abutilon theophrasti; for Herbicidal damage score, ALOMY: Alopecurus myosuroides; for Herbicidal damage score, AMARE: Amaranthus retroflexus; for Herbicidal damage score, ECHCG: Echinochloa crus-galli; for Herbicidal damage score, SETFA: Setaria faberi; for Herbicidal damage score, ZEAMX: Zea mays
Description: (§1) Seeds of a variety of test species were sown in standard soil in pots. After 8 days cultivation (post-emergence) under controlled conditions in a glasshouse (at 24/16° C., day/night; 14 hours light; 65% humidity), the plants were sprayed with an aqueous spray solution derived from the formulation of the technical active ingredient in acetone/water (50:50) solution containing 0.5% Tween 20 (polyoxyethelyene sorbitan monolaurate, CAS RN 9005-64-5). The test plants were then grown in a glasshouse under controlled conditions (at 24/16° C., day/night; 14 hours light; 65% humidity) and watered twice daily. After 13 days, the test was evaluated (5=total damage to plant; 0=no damage to plant).

[2] = test system: a variety of test species; assay: Pre-emergence herbicidal activity (Example 8a, Table 2); format: in vivo; parameters: key: 0 = no damage to plant, 5 = total damage to plant; conditions: application pre-emergence, rate 1000 g/ha, evaluated after 13 days
Description: as §1, with “After” for “After 8 days”, “for one day (pre-emergence)” for “(post-emergence)”

CC1=C(Cl)C(=O)N(c2cc(C(C)(C)C)[nH]n2)C1O (stereo not drawn) [Compound A1]
Herbicidal damage score, ABUTH [1]: 5
Herbicidal damage score, ALOMY [1]: 5
Herbicidal damage score, AMARE [1]: 5
Herbicidal damage score, ECHCG [1]: 5
Herbicidal damage score, SETFA [1]: 5
Herbicidal damage score, ZEAMX [1]: 5
Pre-emergence herbicidal activity, damage score ABUTH [2]: 5
Pre-emergence herbicidal activity, damage score ALOMY [2]: 3
Pre-emergence herbicidal activity, damage score AMARE [2]: 5
Pre-emergence herbicidal activity, damage score ECHCG [2]: 5
Pre-emergence herbicidal activity, damage score SETFA [2]: 5
Pre-emergence herbicidal activity, damage score ZEAMX [2]: 2

CC1=C(Cl)C(=O)N(c2cc(C(F)(F)F)[nH]n2)C1O (stereo not drawn) [Compound A2]
Herbicidal damage score, ABUTH [1]: 5
Herbicidal damage score, ALOMY [1]: 4
Herbicidal damage score, AMARE [1]: 3
Herbicidal damage score, ECHCG [1]: 4
Herbicidal damage score, SETFA [1]: 5
Herbicidal damage score, ZEAMX [1]: 1
Pre-emergence herbicidal activity, damage score ABUTH [2]: 5
Pre-emergence herbicidal activity, damage score ALOMY [2]: 0
Pre-emergence herbicidal activity, damage score AMARE [2]: 5
Pre-emergence herbicidal activity, damage score ECHCG [2]: 3
Pre-emergence herbicidal activity, damage score SETFA [2]: 0
Pre-emergence herbicidal activity, damage score ZEAMX [2]: 2

CC1=C(Cl)C(=O)N(c2cc(C(C)C)[nH]n2)C1O (stereo not drawn) [Compound A3]
Herbicidal damage score, ABUTH [1]: 5
Herbicidal damage score, ALOMY [1]: 5
Herbicidal damage score, AMARE [1]: 5
Herbicidal damage score, ECHCG [1]: 5
Herbicidal damage score, SETFA [1]: 5
Herbicidal damage score, ZEAMX [1]: 5
Pre-emergence herbicidal activity, damage score ABUTH [2]: 5
Pre-emergence herbicidal activity, damage score ALOMY [2]: 3
Pre-emergence herbicidal activity, damage score AMARE [2]: 5
Pre-emergence herbicidal activity, damage score ECHCG [2]: 5
Pre-emergence herbicidal activity, damage score SETFA [2]: 5
Pre-emergence herbicidal activity, damage score ZEAMX [2]: 1

CC1=C(Cl)C(=O)N(c2cc(C3CC3)[nH]n2)C1O (stereo not drawn) [Compound A4]
Herbicidal damage score, ABUTH [1]: 5
Herbicidal damage score, ALOMY [1]: 5
Herbicidal damage score, AMARE [1]: 5
Herbicidal damage score, ECHCG [1]: 5
Herbicidal damage score, SETFA [1]: 5
Herbicidal damage score, ZEAMX [1]: 5
Pre-emergence herbicidal activity, damage score ABUTH [2]: 5
Pre-emergence herbicidal activity, damage score ALOMY [2]: 4
Pre-emergence herbicidal activity, damage score AMARE [2]: 5
Pre-emergence herbicidal activity, damage score ECHCG [2]: 5
Pre-emergence herbicidal activity, damage score SETFA [2]: 5
Pre-emergence herbicidal activity, damage score ZEAMX [2]: 2

CC1=C(Cl)C(=O)N(c2cc(C)[nH]n2)C1O (stereo not drawn) [Compound A5]
Herbicidal damage score, ABUTH [1]: 5
Herbicidal damage score, ALOMY [1]: 4
Herbicidal damage score, AMARE [1]: 3
Herbicidal damage score, ECHCG [1]: 5
Herbicidal damage score, SETFA [1]: 5
Herbicidal damage score, ZEAMX [1]: 3
Pre-emergence herbicidal activity, damage score ABUTH [2]: 5
Pre-emergence herbicidal activity, damage score ALOMY [2]: 3
Pre-emergence herbicidal activity, damage score AMARE [2]: 5
Pre-emergence herbicidal activity, damage score ECHCG [2]: 5
Pre-emergence herbicidal activity, damage score SETFA [2]: 4
Pre-emergence herbicidal activity, damage score ZEAMX [2]: 2

CC1=C(Cl)C(=O)N(c2cc(C(F)(F)C(F)(F)F)[nH]n2)C1O (stereo not drawn) [Compound A6]
Herbicidal damage score, ABUTH [1]: 5
Herbicidal damage score, ALOMY [1]: 5
Herbicidal damage score, AMARE [1]: 5
Herbicidal damage score, ECHCG [1]: 5
Herbicidal damage score, SETFA [1]: 4
Herbicidal damage score, ZEAMX [1]: 4
Pre-emergence herbicidal activity, damage score ABUTH [2]: 5
Pre-emergence herbicidal activity, damage score ALOMY [2]: 3
Pre-emergence herbicidal activity, damage score AMARE [2]: 5
Pre-emergence herbicidal activity, damage score ECHCG [2]: 4
Pre-emergence herbicidal activity, damage score SETFA [2]: 4
Pre-emergence herbicidal activity, damage score ZEAMX [2]: 1

CCC(C)(CC)c1cc(N2C(=O)C(Cl)=C(C)C2O)n[nH]1 (stereo not drawn) [Compound A7]
Herbicidal damage score, ABUTH [1]: 5
Herbicidal damage score, ALOMY [1]: 5
Herbicidal damage score, AMARE [1]: 5
Herbicidal damage score, ECHCG [1]: 5
Herbicidal damage score, SETFA [1]: 5
Herbicidal damage score, ZEAMX [1]: 5
Pre-emergence herbicidal activity, damage score ABUTH [2]: 5
Pre-emergence herbicidal activity, damage score ALOMY [2]: 3
Pre-emergence herbicidal activity, damage score AMARE [2]: 5
Pre-emergence herbicidal activity, damage score ECHCG [2]: 5
Pre-emergence herbicidal activity, damage score SETFA [2]: 5
Pre-emergence herbicidal activity, damage score ZEAMX [2]: 3

CC1=C(Cl)C(=O)N(c2cc(C)n(C)n2)C1O (stereo not drawn) [Compound B1]
Herbicidal damage score, ABUTH [1]: 5
Herbicidal damage score, ALOMY [1]: 4
Herbicidal damage score, AMARE [1]: 5
Herbicidal damage score, ECHCG [1]: 5
Herbicidal damage score, SETFA [1]: 5
Herbicidal damage score, ZEAMX [1]: 5
Pre-emergence herbicidal activity, damage score ABUTH [2]: 5
Pre-emergence herbicidal activity, damage score ALOMY [2]: 3
Pre-emergence herbicidal activity, damage score AMARE [2]: 5
Pre-emergence herbicidal activity, damage score ECHCG [2]: 4
Pre-emergence herbicidal activity, damage score SETFA [2]: 4
Pre-emergence herbicidal activity, damage score ZEAMX [2]: 3

CC1=C(Cl)C(=O)N(c2cc(C(C)(C)C)n(C)n2)C1O (stereo not drawn) [Compound B2]
Herbicidal damage score, ABUTH [1]: 5
Herbicidal damage score, ALOMY [1]: 5
Herbicidal damage score, AMARE [1]: 5
Herbicidal damage score, ECHCG [1]: 5
Herbicidal damage score, SETFA [1]: 5
Herbicidal damage score, ZEAMX [1]: 5
Pre-emergence herbicidal activity, damage score ABUTH [2]: 5
Pre-emergence herbicidal activity, damage score ALOMY [2]: 4
Pre-emergence herbicidal activity, damage score AMARE [2]: 5
Pre-emergence herbicidal activity, damage score ECHCG [2]: 5
Pre-emergence herbicidal activity, damage score SETFA [2]: 5
Pre-emergence herbicidal activity, damage score ZEAMX [2]: 2

CC1=C(Cl)C(=O)N(c2cc(C(F)(F)F)n(C)n2)C1O (stereo not drawn) [Compound B3]
Herbicidal damage score, ABUTH [1]: 5
Herbicidal damage score, ALOMY [1]: 5
Herbicidal damage score, AMARE [1]: 5
Herbicidal damage score, ECHCG [1]: 5
Herbicidal damage score, SETFA [1]: 5
Herbicidal damage score, ZEAMX [1]: 4
Pre-emergence herbicidal activity, damage score ABUTH [2]: 5
Pre-emergence herbicidal activity, damage score ALOMY [2]: 4
Pre-emergence herbicidal activity, damage score AMARE [2]: 4
Pre-emergence herbicidal activity, damage score ECHCG [2]: 5
Pre-emergence herbicidal activity, damage score SETFA [2]: 4
Pre-emergence herbicidal activity, damage score ZEAMX [2]: 2

CC1=C(Cl)C(=O)N(c2cc(C(F)(F)C(F)(F)F)n(C)n2)C1O (stereo not drawn) [Compound B4]
Herbicidal damage score, ABUTH [1]: 5
Herbicidal damage score, ALOMY [1]: 5
Herbicidal damage score, AMARE [1]: 5
Herbicidal damage score, ECHCG [1]: 5
Herbicidal damage score, SETFA [1]: 5
Herbicidal damage score, ZEAMX [1]: 3
Pre-emergence herbicidal activity, damage score ABUTH [2]: 5
Pre-emergence herbicidal activity, damage score ALOMY [2]: 4
Pre-emergence herbicidal activity, damage score AMARE [2]: 5
Pre-emergence herbicidal activity, damage score ECHCG [2]: 5
Pre-emergence herbicidal activity, damage score SETFA [2]: 5
Pre-emergence herbicidal activity, damage score ZEAMX [2]: 2

CC1=C(Cl)C(=O)N(c2cc(C(C)C)n(C)n2)C1O (stereo not drawn) [Compound B5]
Herbicidal damage score, ABUTH [1]: 5
Herbicidal damage score, ALOMY [1]: 4
Herbicidal damage score, AMARE [1]: 5
Herbicidal damage score, ECHCG [1]: 5
Herbicidal damage score, SETFA [1]: 4
Herbicidal damage score, ZEAMX [1]: 5
Pre-emergence herbicidal activity, damage score ABUTH [2]: 5
Pre-emergence herbicidal activity, damage score ALOMY [2]: 3
Pre-emergence herbicidal activity, damage score AMARE [2]: 5
Pre-emergence herbicidal activity, damage score ECHCG [2]: 5
Pre-emergence herbicidal activity, damage score SETFA [2]: 4
Pre-emergence herbicidal activity, damage score ZEAMX [2]: 2

C=CCC(C)(C)c1cc(N2C(=O)C(Cl)=C(C)C2O)nn1C (stereo not drawn) [Compound B6, 4-chloro-1-[5-(1,1-dimethylbut-3-enyl)-1-methyl-pyrazol-3-yl]-2-hydroxy-3-methyl-2H-pyrrol-5-one]
Herbicidal damage score, ABUTH [1]: 5
Herbicidal damage score, ALOMY [1]: 5
Herbicidal damage score, AMARE [1]: 5
Herbicidal damage score, ECHCG [1]: 5
Herbicidal damage score, SETFA [1]: 5
Herbicidal damage score, ZEAMX [1]: 4
Pre-emergence herbicidal activity, damage score ABUTH [2]: 5
Pre-emergence herbicidal activity, damage score ALOMY [2]: 4
Pre-emergence herbicidal activity, damage score AMARE [2]: 5
Pre-emergence herbicidal activity, damage score ECHCG [2]: 4
Pre-emergence herbicidal activity, damage score SETFA [2]: 5
Pre-emergence herbicidal activity, damage score ZEAMX [2]: 4

CC(C)=Cc1cc(N2C(=O)C(Cl)=C(C)C2O)nn1C (stereo not drawn) [Compound B7, 4-chloro-2-hydroxy-3-methyl-1-[1-methyl-5-(2-methylprop-1-enyl)pyrazol-3-yl]-2H-pyrrol-5-one]
Herbicidal damage score, ABUTH [1]: 5
Herbicidal damage score, ALOMY [1]: 4
Herbicidal damage score, AMARE [1]: 5
Herbicidal damage score, ECHCG [1]: 5
Herbicidal damage score, SETFA [1]: 5
Herbicidal damage score, ZEAMX [1]: 2
Pre-emergence herbicidal activity, damage score ABUTH [2]: 4
Pre-emergence herbicidal activity, damage score ALOMY [2]: 2
Pre-emergence herbicidal activity, damage score AMARE [2]: 4
Pre-emergence herbicidal activity, damage score ECHCG [2]: 4
Pre-emergence herbicidal activity, damage score SETFA [2]: 4
Pre-emergence herbicidal activity, damage score ZEAMX [2]: 2
